Test: Storage stability of DNT-Oxal crystal forms (polymorphic form by XRD)
Assay type: physicochemical
Settings: stored at room temperature for 11 months; for Crystal form after the storage: crystal form before vs after the storage, oxalate
Procedure: Crystal forms of DNT-Oxal were stored at room temperature for 11 months. […] The forms of DNT-Oxal were identified using a Scintag X-ray powder diffractometer model X'TRA with a Cu-tube solid state detector. The sample holder was a round standard aluminum sample holder with rough zero background quartz plate with a cavity having a diameter of 25 mm and a depth of 0.5 mm. The scanning parameters were as follows: a range of 2° to 40° 2θ; a continuous scan mode, and a step size of 0.05° at a rate of 3°/minute.

SMILES | Polymorphic stability on storage | Crystal form after the storage
CN(C)CC[C@H](Oc1cccc2ccccc12)c1cccs1.O=C(O)C(=O)O [Form III, (S)-(+)-N,N-Dimethyl-3-(1-naphthalenyloxy)-3-(2-thienyl)propanamine oxalate] | polymorphically stable | Form III
CN(C)CC[C@H](Oc1cccc2ccccc12)c1cccs1.O=C(O)C(=O)O [Form II, (S)-(+)-N,N-Dimethyl-3-(1-naphthalenyloxy)-3-(2-thienyl)propanamine oxalate] | polymorphically stable | Form II
